{
  "source": "patent US8809386B2",
  "about": "“Use of dynamin ring stabilizers” (Children's Medical Research Institute, priority 2009, dated 2014)",
  "key": {"full length dynamin I": {"target": "T1, full length dynamin I (Ovis aries, UniProt A0ACI6NZN1)", "T1 sequence (A0ACI6NZN1 1-864)": "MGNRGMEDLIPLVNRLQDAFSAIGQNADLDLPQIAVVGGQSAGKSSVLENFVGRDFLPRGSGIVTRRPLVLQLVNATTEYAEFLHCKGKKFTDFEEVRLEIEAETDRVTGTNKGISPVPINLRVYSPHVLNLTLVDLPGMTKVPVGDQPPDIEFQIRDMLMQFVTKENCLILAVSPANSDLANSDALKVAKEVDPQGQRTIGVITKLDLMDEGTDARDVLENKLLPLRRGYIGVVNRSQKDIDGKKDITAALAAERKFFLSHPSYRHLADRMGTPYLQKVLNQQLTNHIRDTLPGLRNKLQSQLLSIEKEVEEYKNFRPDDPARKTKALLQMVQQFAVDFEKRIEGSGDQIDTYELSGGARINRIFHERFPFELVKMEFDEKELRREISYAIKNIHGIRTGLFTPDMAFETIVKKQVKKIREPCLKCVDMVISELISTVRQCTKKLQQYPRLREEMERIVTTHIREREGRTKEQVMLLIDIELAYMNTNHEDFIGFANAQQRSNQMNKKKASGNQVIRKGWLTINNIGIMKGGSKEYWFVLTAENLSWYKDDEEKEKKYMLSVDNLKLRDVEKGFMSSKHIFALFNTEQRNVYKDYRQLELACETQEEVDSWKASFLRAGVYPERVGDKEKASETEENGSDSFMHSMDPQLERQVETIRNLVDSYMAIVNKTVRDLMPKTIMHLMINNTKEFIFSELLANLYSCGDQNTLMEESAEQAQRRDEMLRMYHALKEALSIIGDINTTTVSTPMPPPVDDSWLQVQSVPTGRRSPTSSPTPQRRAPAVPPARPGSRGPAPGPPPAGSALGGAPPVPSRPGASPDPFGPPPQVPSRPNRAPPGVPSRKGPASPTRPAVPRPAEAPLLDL", "test": "Basal dynamin GTPase activity in the absence of PS liposomes or other template (ring stabilizer activity)", "assay_type": "biochemical, sheep", "description": "The compounds were present at the indicated concentrations and the concentration causing half-maximal stimulation is shown as the EC50.\nDynamin I (50 nM) GTPase stimulation was performed in the absence of the detergent Tween-80 (and in the absence of any known activators such as PS liposomes, nanotubes or microtubules). […] The GTPase activity of dynamin I (dynI; 200 nM) was measured in the absence of lipid activators (and in the presence of standard Tween-80 at 0.06%).\nA compound (whether a dynamin inhibitor or not) can be identified as a dynamin ring stabilizer by assaying for its capacity to promote accumulation of dynamin rings and/or to inhibit disassembly of dynamin rings. […] GTPase activity of dynamin or dynamin rings can be determined by any conventionally known method (e.g., see Quan and Robinson. 2005). Such conditions include: (a) the absence of a helix assembly template such as liposomes, microtubules or lipid nanotubes, and (b) higher concentrations of dynamin than normally required for detecting template stimulated activity, typically 50-500 nM dynamin instead of 1-20 nM. Thus, ring stabilizer activity can be identified by the ability to stimulate the GTPase activity of full length dynamin in the absence of other stimulatory factors (such as PS liposomes, microtubules or nanotubes). Additional defining characteristics are available but are not essential if the first condition has been met. One such additional characteristic of ring stabilizer activity is that the stimulated activity occurs after a lag phase of a few minutes, rather than being an immediate activation in vitro. […] Such conditions typically mean utilising 50-200 nM dynamin in the absence of a template as distinct from higher concentrations where self-assembly is known to occur without the addition of a dynamin ring stabilizer.\nNext, a time course experiment of Bis-T-23 stimulation of dynamin GTPase (FIG. 3) was conducted. […] The lag phase is thought to indicate the time required for dynamin to assemble as rings."}, "dynamin I": {"tested_on": "dynamin I", "test": "Dynamin disassembly centrifugation assay, helix preassembled on PS liposomes", "assay_type": "biochemical", "conditions": "FIG. 7", "description": "Briefly, dynamin I was preassembled as a helix in the presence of PS liposomes for 30 min, after which the dynamin ring stabilizer Bis-T-23 or non-dynamin ring stabilizer dynole 34-2 (see Example 4) were added. The samples were then centrigued in a microfuge for 10 min to collect supernatans (Sup) or pellets. In this assay, helical dynamin is found primarily in the pellet. However, the addition of either NaCl (150 mM) or Mg/GTP (1 mM) is known to disassemble dynamin and it is found primarily in the supernatant (see FIG. 7). […] This unique mechanism of action explains why dynamin ring stabilizers can stimulate basal GTPase while inhibiting helical dynamin GTPase activity at the same time."}, "cultured mouse podocytes": {"tested_on": "cultured mouse podocytes", "test": "Actin cytoskeleton and focal adhesions in cultured podocytes (rhodamine-phalloidin, anti-paxillin)", "assay_type": "cell-based", "conditions": "10 min after addition", "description": "FIG. 19 is a photograph showing the effects of Bis-T-23 on the actin cytoskeleton in podocytes. Cells were stained using rhodamine-phalloidin for F-actin (left column) and anti-paxillin monoclonal antibody (centre column). The merged staining is shown on the right column.\n(§1) To determine if the in vitro action of the dynamin ring stabilizers also occurs in cells, the effect of Bis-T-23 on the actin cytoskeleton in cultured mouse podocytes was tested (FIG. 19). […] Thus, the observed increase in stress fibers is unlikely due to inhibition of endocytosis."}, "endocytosis": {"tested_on": "endocytosis", "test": "Endocytosis in cells (data not shown)", "assay_type": "cell-based", "description": "as §1"}, "[1]": {"tested_on": "LPS-induced proteinuria, BALB/c mice", "test": "LPS-induced proteinuria in mice", "assay_type": "in vivo, mouse", "conditions": "IP, 300 μg per 100 g body weight", "description": "FIG. 21 is a graph showing that the ring stabilizer Bis-T-23 rescues proteinuria in lipopolysaccharide (LPS) treated mice. LPS is a model for proteinuric kidney disease. Albumin levels were determined in 6 mice prior to (Con), 24 hours after LPS injection (2×LPS), and 2, 4, 6 and 8 h after administration of Bis-T-23 (open bars) or DMSO (delivery solution, grey bars). A decrease in proteinuria was noted from 2-8 hours after administration of a single dose of this ring stabilizer.\nA second model of acute proteinuria was then employed to test the ability of a dynamin ring stabilizer to ameliorate proteinuria in a reversible model of proteinuric kidney disease. LPS-induced proteinuria was utilized as previously described (Sever et al., 2007). Briefly, four week old female BALB/c mice were injected twice intraperitoneally (IP) with 200 μg of ultrapure LPS diluted in phosphate-buffered saline at a concentration of 1 mg/ml. Proteinuria developed within 48 h (FIG. 20, 2×LPS). Bis-T-23 was dissolved in DMSO to the appropriate concentrations and 300 μg per 100 g body weight was delivered by IP injection, and DMSO was used as a vehicle control. The level of protein in the urine was determined by using mouse Albumin-specific ELISA kit according to manufacturer's protocol (Bethyl Laboratories)."}},
  "data": [
    {"compound": "N#CC(=Cc1cc(O)c(O)c(O)c1)C(=O)NCCCNC(=O)C(C#N)=Cc1cc(O)c(O)c(O)c1", "note": "[Bis-T-23, 2-cyano-N-{3-[2-cyano-3-(3,4,5-trihydroxyphenyl)-acryloylamino]-propyl}-3-(3,4,5-trihydroxyphenyl)-acrylamide]", "values": [
      {"measurement": "lag phase before stimulation of dynamin GTPase activity", "setting": "full length dynamin I; 5 μM, 800 nM dynamin, 30 mM NaCl, FIG. 3", "result": "about 4 minutes"},
      {"measurement": "stimulation of basal dynamin GTPase activity in the absence of Tween-80", "setting": "full length dynamin I; Dynamin I 50 nM, no Tween-80, no activators, FIG. 11A", "result": "are dynamin ring stabilizers"},
      {"measurement": "concentration causing 50% activation of basal dynamin activity (EC50)", "setting": "full length dynamin I; FIG. 2, compared with IC50 of 500 nM", "result": "about the same value"},
      {"measurement": "dynamin concentration at which basal GTPase activity is stimulated", "setting": "full length dynamin I; absence of liposomes, 5 μM, FIG. 1", "result": "≥ 100", "unit": "nM"},
      {"measurement": "disassembly of helical dynamin by NaCl (150 mM) or Mg/GTP (1 mM)", "setting": "dynamin I", "result": "reduce the disassembly of helical dynamin"},
      {"measurement": "stress fibers in podocytes", "setting": "cultured mouse podocytes; FIG. 19", "result": "dramatic increase in well-defined stress fibers"},
      {"measurement": "number of focal adhesions (paxillin staining)", "setting": "cultured mouse podocytes; FIG. 19B", "result": "dramatic increase in the number of focal adhesions"},
      {"measurement": "endocytosis", "setting": "endocytosis", "result": "inhibits endocytosis"},
      {"measurement": "proteinuria (urine albumin)", "setting": "[1]; 2-6 h after injection, FIG. 21", "result": "partially rescued proteinuria"},
      {"measurement": "proteinuria (urine albumin)", "setting": "[1]; 8 h after injection", "result": "ability to rescue proteinuria was reduced"}
    ]}
  ]
}
